Where two headings read alike, the source gives them in different places.
How the values were obtained:
[1] = target: M^Pro-eGFP fusion protein in 293T cells (Severe acute respiratory syndrome coronavirus 2, UniProt P0DTD1); test: cell-based; parameters: species or system SARS-CoV-2; settings: read-out: Cellular EC50
[2] = target: SARS-CoV-2 main protease (M^Pro) (Severe acute respiratory syndrome coronavirus 2, UniProt P0DTD1); test: In vitro M^Pro enzymatic inhibition with fluorogenic substrate Sub3; type: biochemical
[3] = system: SARS-CoV-2 (USA-WA1/2020); test: Plaque reduction neutralization test in Vero E6 cells; type: cell-based; settings: SARS-CoV-2 USA-WA1/2020, Vero E6 cells, 3 days, read-out: Antiviral EC50
[4] = 20 nM M^Pro, 10 μM Sub3, 30 min preincubation, read-out: Enzymatic IC50
[5] = read-out: IC50 (M^Pro enzymatic inhibition)
[6] = Severe acute respiratory syndrome coronavirus 2, Vero C1008, 72 h

Compound | EC50 [1] | IC50 [2, 4] | IC50 [2, 5] | EC50 [3, 6] | EC50 [3]
CC1(C)[C@@H]2[C@@H](C(=O)N[C@H](C=O)C[C@@H]3CCNC3=O)N(C(=O)COc3ccc(Cl)cc3Cl)C[C@@H]21 [MI-14, (1R,2S,5S)-3-(2-(2,4-Dichlorophenoxy)acetyl)-6,6-dimethyl-N-((S)-1-oxo-3-((S)-2-oxopyrrolidin-3-yl)propan-2-yl)-3-azabicyclo[3.1.0]hexane-2-carboxamide, reference compound] | 280 nM | 28 nM | ≤ 50 nM |  | 
O=C[C@H](C[C@@H]1CCNC1=O)NC(=O)[C@@H]1[C@H]2CCC[C@H]2CN1C(=O)COc1ccc(Cl)c(Cl)c1 [MI-31, (1S,3aR,6aS)-2-(2-(3,4-Dichlorophenoxy)acetyl)-N-((S)-1-oxo-3-((S)-2-oxopyrrolidin-3-yl)propan-2-yl)octahydrocyclopenta[c]pyrrole-1-carboxamide, reference compound] | 2700 nM | 42 nM | ≤ 50 nM |  | 
CC(C)(C)C[C@H](NC(=O)c1cc2ccccc2[nH]1)C(=O)N[C@H](C=O)C[C@@H]1CCNC1=O [MPI48, N-((S)-4,4-Dimethyl-1-oxo-1-(((S)-1-oxo-3-((S)-2-oxopyrrolidin-3-yl)propan-2-yl)amino)pentan-2-yl)-1H-indole-2-carboxamide] | 1600 nM | 29 nM |  |  | 
COc1cccc2[nH]c(C(=O)N[C@@H](CC(C)(C)C)C(=O)N[C@H](C=O)C[C@@H]3CCNC3=O)cc12 [MPI49, N-((S)-4,4-Dimethyl-1-oxo-1-(((S)-1-oxo-3-((S)-2-oxopyrrolidin-3-yl)propan-2-yl)amino)pentan-2-yl)-4-methoxy-1H-indole-2-carboxamide] | 910 nM | 74 nM |  | 1300 nM | 
CC(C)(C)C[C@H](NC(=O)OCc1ccccc1)C(=O)N[C@H](C=O)C[C@@H]1CCNC1=O [MPI50, Benzyl ((S)-4,4-Dimethyl-1-oxo-1-(((S)-1-oxo-3-((S)-2-oxopyrrolidin-3-yl)propan-2-yl)amino)pentan-2-yl)carbamate] | 730 nM | 53 nM |  | < 1000 nM | 750 nM
O=C[C@H](C[C@@H]1CCNC1=O)NC(=O)[C@H](CC1CCCCC1)NC(=O)OCc1ccccc1 [MPI51, Benzyl ((S)-3-Cyclohexyl-1-oxo-1-(((S)-1-oxo-3-((S)-2-oxopyrrolidin-3-yl)propan-2-yl)amino)propan-2-yl)carbamate] | 770 nM | 56 nM |  | 6700 nM | 
O=C[C@H](C[C@@H]1CCNC1=O)NC(=O)[C@H](CC1CCCCC1)NC(=O)OCc1cccc(Cl)c1 [MPI52, 3-Chlorobenzyl ((S)-3-Cyclohexyl-1-oxo-1-(((S)-1-oxo-3-((S)-2-oxopyrrolidin-3-yl)propan-2-yl)amino)propan-2-yl)carbamate] | 590 nM | 110 nM |  | 2600 nM | 
CC(=O)Oc1cccc(COC(=O)N[C@@H](CC2CCCCC2)C(=O)N[C@H](C=O)C[C@@H]2CCNC2=O)c1 [MPI53, 3-(((((S)-3-Cyclohexyl-1-oxo-1-(((S)-1-oxo-3-((S)-2-oxopyrrolidin-3-yl)propan-2-yl)amino)propan-2-yl)carbamoyl)oxy)methyl)phenyl Acetate] | 3500 nM | 98 nM |  |  | 
CC(C)(C)O[C@@H]1C[C@@H](C(=O)N[C@H](C=O)C[C@@H]2CCNC2=O)N(C(=O)OCc2ccccc2)C1 [MPI55] |  | 560 nM |  |  | 
O=C[C@H](C[C@@H]1CCNC1=O)NC(=O)[C@@H]1C[C@@H](C2CCCCC2)CN1C(=O)OCc1ccccc1 [MPI56, (2S,4S)-Benzyl 4-Cyclohexyl-2-(((S)-1-oxo-3-((S)-2-oxopyrrolidin-3-yl)propan-2-yl)carbamoyl)pyrrolidine-1-carboxylate] |  | 510 nM |  |  | 
CC1(C)[C@@H]2[C@@H](C(=O)NC(C=O)CC3CCNC3=O)N(C(=O)OCc3ccccc3)C[C@@H]21 (stereo partly drawn) [MPI57, Benzyl (1R,2S,5S)-6,6-Dimethyl-2-((1-oxo-3-(2-oxopyrrolidin-3-yl)propan-2-yl)carbamoyl)-3-azabicyclo[3.1.0]hexane-3-carboxylate] |  |  |  | 1500 nM | 
O=C[C@H](C[C@@H]1CCNC1=O)NC(=O)[C@@H]1CC2(CC2)CN1C(=O)OCc1ccccc1 [MPI58, Benzyl (S)-6-(((S)-1-oxo-3-((S)-2-oxopyrrolidin-3-yl)propan-2yl)carbamoyl)-5-azaspiro[2,4]heptane-5-carboxylate] | 660 nM | 25 nM |  | 3600 nM | 
CC1(C)[C@@H]2[C@@H](C(=O)N[C@H](C=O)C[C@@H]3CCNC3=O)N(C(=O)CNc3ccc(Cl)cc3)C[C@@H]21 [MPI62, (1R,2S,5S)-3-((4-Chlorophenyl)glycyl)-6,6-dimethyl-N-((S)-1-oxo-3-((S)-2-oxopyrrolidin-3-yl)propan-2-yl)-3-azabicyclo[3.1.0]hexane-2-carboxamide] |  | 990 nM |  |  | 
O=C[C@H](C[C@@H]1CCNC1=O)NC(=O)[C@@H]1CC2(CC2)CN1C(=O)COc1ccc(Cl)cc1Cl [MPI63, (S)-5-(2-(2,4-Dichlorophenoxy)acetyl)-N-((S)-1-oxo-3-((S)-2-oxopyrrolidin-3-yl)propan-2-yl)-5-azaspiro[2.4]heptane-6-carboxamide] | 2900 nM | 39 nM |  |  | 
CC1(C)[C@@H]2[C@@H](C(=O)N[C@H](C=O)C[C@@H]3CCNC3=O)N(C(=O)COC3CCCCC3)C[C@@H]21 [MPI64, (1R,2S,5S)-3-(2-(Cyclohexyloxy)acetyl)-6,6-dimethyl-N-((S)-1-oxo-3-((S)-2-oxopyrrolidin-3-yl)propan-2-yl)-3-azabicyclo[3.1.0]hexane-2-carboxamide] | 3600 nM | 25 nM |  |  | 
N#C[C@H](C[C@@H]1CCNC1=O)NC(=O)C1CC2(CCCC2)CN1C(=O)OCc1ccccc1 (stereo partly drawn) [MPI66-1, Benzyl 3-(((S)-1-Cyano-2-((S)-2-oxopyrrolidin-3-yl)ethyl)carbamoyl)-2-azaspiro[4.4]nonane-2-carboxylate] |  | 2200 nM |  |  | 
N#C[C@H](C[C@@H]1CCNC1=O)NC(=O)C1CC2(CCCC2)CN1C(=O)OCc1cccc(Cl)c1 (stereo partly drawn) [MPI66-2, 3-Chlorobenzyl 3-(((S)-1-Cyano-2-((S)-2-oxopyrrolidin-3-yl)ethyl)carbamoyl)-2-azaspiro[4.4]nonane-2-carboxylate] |  | 3600 nM |  |  | 
COc1cccc2[nH]c(C(=O)N3CC4(CCCC4)CC3C(=O)N[C@H](C=O)C[C@@H]3CCNC3=O)cc12 (stereo partly drawn) [MPI66-3, 2-(4-Methoxy-1H-indole-2-carbonyl)-N-((S)-1-oxo-3-((S)-2-oxopyrrolidin-3-yl)propan-2-yl)-2-azaspiro[4.4]nonane-3-carboxamide] |  | 1500 nM |  |  | 
COc1cccc2[nH]c(C(=O)N3CC4(CCCC4)CC3C(=O)N[C@H](C#N)C[C@@H]3CCCNC3=O)cc12 (stereo partly drawn) [MPI66-4, N-((S)-1-Cyano-2-((S)-2-oxopiperidin-3-yl)ethyl)-2-(4-methoxy-1H-indole-2-carbonyl)-2-azaspiro[4.4]nonane-3-carboxamide] |  | 6000 nM |  |  | 
N#C[C@H](C[C@@H]1CCNC1=O)NC(=O)C1CC2(CCCCC2)CN1C(=O)OCc1ccccc1 (stereo partly drawn) [MPI67, Benzyl 3-(((S)-1-Cyano-2-((S)-2-oxopyrrolidin-3-yl)ethyl)carbamoyl)-2-azaspiro[4.5]decane-2-carboxylate] |  | 1400 nM |  |  | 
CC(C)(C)OC(=O)N1CC2(CCC2)C[C@H]1C(=O)N[C@H](C=O)C[C@@H]1CCNC1=O [YR-B-101, tert-Butyl-(S)-7-(((S)-1-oxo-3-((S)-2-oxopyrrolidin-3-yl)propan-2-yl)carbamoyl)-6-azaspiro[3.4]octane-6-carboxylate] |  | > 5000 nM |  |  | 
